Measurements taken from patent publication US20120270884A1, “Methods of Treating Aneurysmal Dilatation, Blood Vessel Wall Weakness and Specifically Abdominal Aortic and Thoracic Aneurysm Using Matrix Metalloprotease-2 Inhibitors” (SYMPHONY EVOLUTION, INC., priority 2009, published 2012).

Assays:
Type in all cases: biochemical
[1] = molecular target: TACE (TNF-alpha converting enzyme, ADAM-17) (Homo sapiens, UniProt P78536); assay: In vitro metalloprotease inhibition, TACE
Description: (§1) Blank cells indicate lack of data only.

[2] = molecular target: T1, MMP-1 (Fibroblast collagenase) (Homo sapiens, UniProt P03956); assay: In vitro metalloprotease inhibition, MMP-1
T1 sequence (P03956 100-469): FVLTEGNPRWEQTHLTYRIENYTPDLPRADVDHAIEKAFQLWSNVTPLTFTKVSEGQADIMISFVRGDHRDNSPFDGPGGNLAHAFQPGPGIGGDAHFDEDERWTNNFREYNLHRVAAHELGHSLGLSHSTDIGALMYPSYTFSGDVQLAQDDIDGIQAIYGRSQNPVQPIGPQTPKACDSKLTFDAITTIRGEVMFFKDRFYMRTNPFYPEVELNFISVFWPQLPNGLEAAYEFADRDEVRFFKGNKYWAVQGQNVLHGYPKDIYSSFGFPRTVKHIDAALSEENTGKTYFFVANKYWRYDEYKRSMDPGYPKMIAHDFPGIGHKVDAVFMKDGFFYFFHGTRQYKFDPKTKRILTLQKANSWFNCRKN
Description: as §1

[3] = molecular target: T2, MMP-2 (72 kDa gelatinase, gelatinase A) (Homo sapiens, UniProt P08253); assay: In vitro metalloprotease inhibition, MMP-2
T2 sequence (P08253 110-660): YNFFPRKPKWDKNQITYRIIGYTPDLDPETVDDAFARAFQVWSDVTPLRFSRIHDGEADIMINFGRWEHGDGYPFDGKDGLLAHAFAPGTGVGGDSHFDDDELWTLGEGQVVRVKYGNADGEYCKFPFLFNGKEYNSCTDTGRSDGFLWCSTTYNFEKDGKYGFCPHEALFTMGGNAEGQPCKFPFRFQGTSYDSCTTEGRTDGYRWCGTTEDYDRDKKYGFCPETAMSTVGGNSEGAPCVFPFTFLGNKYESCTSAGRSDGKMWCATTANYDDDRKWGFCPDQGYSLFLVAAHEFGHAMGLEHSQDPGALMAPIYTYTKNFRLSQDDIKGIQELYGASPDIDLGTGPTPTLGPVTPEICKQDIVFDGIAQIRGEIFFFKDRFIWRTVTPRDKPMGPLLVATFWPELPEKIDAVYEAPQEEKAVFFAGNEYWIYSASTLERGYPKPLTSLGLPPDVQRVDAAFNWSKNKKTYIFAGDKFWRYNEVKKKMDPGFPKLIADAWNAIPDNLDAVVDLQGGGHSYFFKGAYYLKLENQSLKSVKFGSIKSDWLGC

MMP-3 (Stromelysin-1) = MMP-3 (Stromelysin-1) (Homo sapiens, UniProt P08254); assay: In vitro metalloprotease inhibition, MMP-3
Chain of MMP-3 (Stromelysin-1) (P08254 100-477, species assumed): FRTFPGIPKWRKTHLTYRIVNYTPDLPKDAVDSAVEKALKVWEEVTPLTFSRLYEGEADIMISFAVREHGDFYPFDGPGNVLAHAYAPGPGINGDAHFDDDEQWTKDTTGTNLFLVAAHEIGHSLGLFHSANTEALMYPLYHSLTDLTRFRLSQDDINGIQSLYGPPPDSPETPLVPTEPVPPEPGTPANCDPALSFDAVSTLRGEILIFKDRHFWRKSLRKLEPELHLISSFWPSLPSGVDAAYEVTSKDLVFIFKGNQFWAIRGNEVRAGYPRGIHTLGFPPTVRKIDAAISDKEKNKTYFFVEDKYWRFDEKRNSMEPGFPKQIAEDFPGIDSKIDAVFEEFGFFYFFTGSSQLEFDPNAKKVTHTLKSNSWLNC
Description: as §1

MMP-13 (collagenase-3) = MMP-13 (collagenase-3) (Homo sapiens, UniProt P45452); assay: In vitro metalloprotease inhibition, MMP-13

Chain of TACE (TNF-alpha converting enzyme, ADAM-17) (P78536 215-824): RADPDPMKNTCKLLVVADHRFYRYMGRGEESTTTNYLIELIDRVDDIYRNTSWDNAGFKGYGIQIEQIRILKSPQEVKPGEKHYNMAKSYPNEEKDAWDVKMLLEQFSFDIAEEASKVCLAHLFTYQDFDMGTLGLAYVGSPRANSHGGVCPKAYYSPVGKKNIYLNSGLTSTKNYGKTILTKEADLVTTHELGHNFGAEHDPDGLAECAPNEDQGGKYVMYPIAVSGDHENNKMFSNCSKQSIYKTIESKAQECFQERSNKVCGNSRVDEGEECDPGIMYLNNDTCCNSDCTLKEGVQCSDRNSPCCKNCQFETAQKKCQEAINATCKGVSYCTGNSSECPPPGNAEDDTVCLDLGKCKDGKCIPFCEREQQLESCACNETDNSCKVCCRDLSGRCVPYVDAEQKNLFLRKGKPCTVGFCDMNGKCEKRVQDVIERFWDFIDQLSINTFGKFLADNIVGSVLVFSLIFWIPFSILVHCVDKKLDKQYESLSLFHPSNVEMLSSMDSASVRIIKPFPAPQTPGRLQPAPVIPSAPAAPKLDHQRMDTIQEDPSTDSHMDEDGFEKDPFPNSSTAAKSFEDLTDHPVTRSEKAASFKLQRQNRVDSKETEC

Row | SMILES | IC50 [1] [nM] | IC50 [2] [nM] | IC50 [3] [nM] | IC50 (MMP-3 (Stromelysin-1)) [nM] | IC50 (MMP-13 (collagenase-3)) [nM]
1 | O=C(NO)[C@H]1CN(C(=O)C(=O)N2CCOCC2)CCN1S(=O)(=O)c1cc(F)c(Oc2ccc(Cl)cc2)c(F)c1 [Entry 31] | 50 to 1000 | 1000 to 20000 | < 50 | 50 to 1000 | < 50
2 | O=C(NO)[C@H]1CN(S(=O)(=O)NC(=O)N2CCCCC2)CCN1S(=O)(=O)c1cc(F)c(Oc2ccc(Cl)cc2)c(F)c1 [Entry 37] | 50 to 1000 | 1000 to 20000 | < 50 | < 50 | < 50
3 | O=C(NO)[C@H]1CN(S(=O)(=O)NC(=O)N2CCOCC2)CCN1S(=O)(=O)c1cc(F)c(Oc2ccc(Cl)cc2)c(F)c1 [Entry 38] | 50 to 1000 | 1000 to 20000 | < 50 | < 50 | < 50
4 | O=C(NO)[C@H]1CN(S(=O)(=O)CCN2CCCCC2)CCN1S(=O)(=O)c1cc(F)c(Oc2ccc(Cl)cc2)c(F)c1 [Entry 53] | – | 50 to 1000 | < 50 | 50 to 1000 | < 50
5 | CN1CCN(CCS(=O)(=O)N2CCN(S(=O)(=O)c3cc(F)c(Oc4ccc(Cl)cc4)c(F)c3)[C@@H](C(=O)NO)C2)CC1 [Entry 55] | – | 1000 to 20000 | < 50 | 50 to 1000 | < 50
6 | CCOC(=O)N1CCN(CCS(=O)(=O)N2CCN(S(=O)(=O)c3cc(F)c(Oc4ccc(Cl)cc4)c(F)c3)[C@@H](C(=O)NO)C2)CC1 [Entry 56] | – | 1000 to 20000 | < 50 | 50 to 1000 | < 50
7 | O=C(NO)[C@H]1CN(S(=O)(=O)CCN2CCOCC2)CCN1S(=O)(=O)c1cc(F)c(Oc2ccc(Cl)cc2)c(F)c1 [Entry 57] | – | > 20000 | 50 to 1000 | 1000 to 20000 | 50 to 1000
8 | O=C(NO)[C@H]1CN(C(=O)N2CCOCC2)CCN1S(=O)(=O)c1ccc(-c2cccc(F)c2)nc1 [Entry 58] | – | 50 to 1000 | < 50 | 50 to 1000 | < 50
9 | C=CCN1CCN(S(=O)(=O)c2cc(F)c(Oc3ccc(Cl)cc3)c(F)c2)[C@@H](C(=O)NO)C1 [Entry 62] | – | > 20000 | < 50 | 1000 to 20000 | < 50
10 | COCCOC(=O)N1CCN(S(=O)(=O)c2ccc(Oc3ccc4c(c3)CCCC4)nc2)[C@@H](C(=O)NO)C1 [Entry 64] | – | 50 to 1000 | < 50 | < 50 | < 50
11 | COCCOC(=O)N1CCN(S(=O)(=O)c2ccc(Oc3ccc(F)cc3)nc2)[C@@H](C(=O)NO)C1 [Entry 65] | – | < 50 | < 50 | < 50 | < 50
12 | COCCOC(=O)N1CCN(S(=O)(=O)c2ccc(-c3cccc(F)c3)nc2)[C@@H](C(=O)NO)C1 [Entry 66] | – | 50 to 1000 | < 50 | < 50 | < 50

Results, then the compound that gave them:

Row | IC50 [1] [nM] | IC50 [2] [nM] | IC50 [3] [nM] | IC50 (MMP-3 (Stromelysin-1)) [nM] | IC50 (MMP-13 (collagenase-3)) [nM] | SMILES
13 | < 50 | 1000 to 20000 | < 50 | 50 to 1000 | < 50 | O=C(NO)[C@H]1CN(S(=O)(=O)Cc2ccncc2)CCN1S(=O)(=O)c1cc(F)c(Oc2ccc(Cl)cc2)c(F)c1 [Entry 34]
14 | 50 to 1000 | 1000 to 20000 | < 50 | 50 to 1000 | < 50 | O=C(NO)[C@H]1CN(S(=O)(=O)c2cccnc2O)CCN1S(=O)(=O)c1cc(F)c(Oc2ccc(Cl)cc2)c(F)c1 [Entry 45]
15 | – | > 20000 | < 50 | 50 to 1000 | < 50 | O=C(NO)[C@H]1CN(C(=O)Cc2cccnc2)CCN1S(=O)(=O)c1cc(F)c(Oc2ccc(Cl)cc2)c(F)c1 [Entry 47]
16 | – | > 20000 | < 50 | 50 to 1000 | < 50 | O=C(NO)[C@H]1CN(S(=O)(=O)c2cccc3cnccc23)CCN1S(=O)(=O)c1cc(F)c(Oc2ccc(Cl)cc2)c(F)c1 [Entry 48]
17 | – | > 20000 | < 50 | 50 to 1000 | < 50 | CN(C)c1ccc2c(S(=O)(=O)N3CCN(S(=O)(=O)c4cc(F)c(Oc5ccc(Cl)cc5)c(F)c4)[C@@H](C(=O)NO)C3)cccc2c1 [Entry 49]
18 | – | > 20000 | > 20000 | 50 to 1000 | < 50 | CN(C)c1ccc2ccc(S(=O)(=O)N3CCN(S(=O)(=O)c4cc(F)c(Oc5ccc(Cl)cc5)c(F)c4)[C@@H](C(=O)NO)C3)cc2c1 [Entry 50]
19 | – | 1000 to 20000 | 50 to 1000 | 1000 to 20000 | 50 to 1000 | O=C(NO)[C@H]1CN(C(=O)c2ccc(-c3ccccc3)cc2)CCN1S(=O)(=O)c1cc(F)c(Oc2ccc(Cl)cc2)c(F)c1 [Entry 51]
20 | – | 1000 to 20000 | < 50 | 1000 to 20000 | < 50 | O=C(NO)[C@H]1CN(C(=O)Cc2ccncc2)CCN1S(=O)(=O)c1cc(F)c(Oc2ccc(Cl)cc2)c(F)c1 [Entry 52]
21 | < 50 | 50 to 1000 | < 50 | < 50 | < 50 | CN(C)CCS(=O)(=O)N1CCN(S(=O)(=O)c2cc(F)c(Oc3ccc(Cl)cc3)c(F)c2)[C@@H](C(=O)NO)C1 [Entry 54]
22 | 50 to 1000 | 1000 to 20000 | < 50 | 50 to 1000 | < 50 | O=C(NO)[C@H]1CN(C(=O)c2cccnc2)CCN1S(=O)(=O)c1cc(F)c(Oc2ccc(Cl)cc2)c(F)c1 [Entry 59]
23 | – | > 20000 | < 50 | 1000 to 20000 | < 50 | CN(C)c1cccc2c(S(=O)(=O)N3CCN(S(=O)(=O)c4cc(F)c(Oc5ccc(Cl)cc5)c(F)c4)[C@@H](C(=O)NO)C3)cccc12 [Entry 60]
24 | – | > 20000 | 1000 to 20000 | > 20000 | 1000 to 20000 | O=C(NO)[C@H]1CN(S(=O)(=O)Cc2cc(Cl)cc(Cl)c2)CCN1S(=O)(=O)c1cc(F)c(Oc2ccc(Cl)cc2)c(F)c1 [Entry 61]
25 | – | > 20000 | 50 to 1000 | 1000 to 20000 | 50 to 1000 | O=C(O)CN1CCN(S(=O)(=O)c2cc(F)c(Oc3ccc(Cl)cc3)c(F)c2)[C@@H](C(=O)NO)C1 [Entry 63]
